In the assay the test system is HT-29 cells. As to the kind of experiment: HT29 Cells 0FBS Assay In Vitro (TNF-α/SMAC mimetic/zVAD-FMK induced necroptosis, CellTiter-Glo cell viability). Format: cell-based. The conditions noted are these: Homo sapiens. In short, it runs like this:
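HT-29 cells (5,000/well, seeded overnight) in serum-free McCoy's 5A were stimulated with TNF-α 10 ng/ml, SMAC mimetic 6 μM and zVAD-FMK 10 μM to induce necroptosis. Compound added as 10-point 3-fold series for 20 h at 37° C. CellTiter-Glo luminescence gives viability; EC50 is geometric mean of duplicate dose-responses.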
On the technique in general: Cellular ATP, detected with luciferase, serves as a proxy for viable cell number.

The mark [1] stands for this setting: HT-29 cells, FBS free medium, TNF-α (10 ng/ml), SMAC mimetic (6 uM), zVAD-FMK (10 μM), 20 hours, geometric mean EC50, read-out: Cell activity (EC50) of Compounds 117-281.
Setting [2] is: HT-29 cells, FBS free medium, TNF-α (10 ng/ml), SMAC mimetic (6 uM), zVAD-FMK (10 μM), 20 hours, geometric mean EC50, read-out: Cell activity (EC50) of Compounds 1-116.

Where two headings read alike, the source gives them in different places.

By EC50 is commonly meant the concentration that produces a half-maximal response. With `Cc1nn(-c2cc(OC3CN(C(=O)N4N=CC[C@H]4c4cc(F)cc(F)c4)C3)c(F)cn2)c(C)c1[S+](C)[O-]` (stereo partly drawn) [compound 204, ((S)-5-(3,5-difluorophenyl)-4,5-dihydro-1H-pyrazol-1-yl)(3-((2-(3,5-dimethyl-4-(methylsulfinyl)-1H-pyrazol-1-yl)-5-fluoropyridin-4-yl)oxy)azetidin-1-yl)methanone], under setting [1], the EC50 lay within 0.1 to 100 nM.
Consider `Cc1nscc1-c1ncc(F)c(OC2CN(C(=O)N3N=CC[C@H]3c3cc(F)cc(F)c3)C2)n1` [compound 15, (S)-(5-(3,5-difluorophenyl)-4,5-dihydro-1H-pyrazol-1-yl)(3-((5-fluoro-2-(3-methylisothiazol-4-yl)pyrimidin-4-yl)oxy)azetidin-1-yl)methanone], for which the 50% effective concentration (EC50) under setting [2] was 0.1 to 100 nM.
Regarding `Cn1nc(N)cc1-c1cc(OC2CN(C(=O)N3N=CC[C@H]3c3cc(F)cc(F)c3)C2)c(F)cn1` [compound 41, (S)-(3-((2-(3-amino-1-methyl-1H-pyrazol-5-yl)-5-fluoropyridin-4-yl)oxy)azetidin-1-yl)(5-(3,5-difluorophenyl)-4,5-dihydro-1H-pyrazol-1-yl)methanone], under setting [2], the EC50 was in the range of 0.1 to 100 nM.
`COC1CN(C(=O)c2cnn(C)c2-c2cc(OC3CN(C(=O)N4N=CC[C@H]4c4cc(F)cc(F)c4)C3)c(F)cn2)C1` [compound 74, (S)-(5-(3,5-difluorophenyl)-4,5-dihydro-1H-pyrazol-1-yl)(3-((5-fluoro-2-(4-(3-methoxyazetidine-1-carbonyl)-1-methyl-1H-pyrazol-5-yl)pyridin-4-yl)oxy)azetidin-1-yl)methanone]: the concentration for a half-maximal effect (EC50) under setting [2] lay within 100 to 1000 nM.
Take `Cc1c(-c2cc(OC3CN(C(=O)N4N=CC[C@H]4c4cc(F)cc(F)c4)C3)c(F)cn2)nn(C)c1C(=O)NCCO` [compound 265, (S)-3-(4-((1-(5-(3,5-difluorophenyl)-4,5-dihydro-1H-pyrazole-1-carbonyl)azetidin-3-yl)oxy)-5-fluoropyridin-2-yl)-N-(2-hydroxyethyl)-1,4-dimethyl-1H-pyrazole-5-carboxamide]: the 50% effective concentration (EC50) under setting [1] fell in the range of 0.1 to 100 nM.
As to `Cn1ncc(NCCN2CCOCC2)c1-c1cc(OC2CN(C(=O)N3N=CC[C@H]3c3cc(F)cc(F)c3)C2)c(F)cn1` [compound 120, (S)-(5-(3,5-difluorophenyl)-4,5-dihydro-1H-pyrazol-1-yl)(3-((5-fluoro-2-(1-methyl-4-((2-morpholinoethyl)amino)-1H-pyrazol-5-yl)pyridin-4-yl)oxy)azetidin-1-yl)methanone], under setting [1], the EC50 lay in the range of 0.1 to 100 nM.
The same measure, in the same setting: the value for `CNc1cc(-c2cc(OC3CN(C(=O)N4N=CC[C@H]4c4cc(F)cc(F)c4)C3)c(F)cn2)n(C)n1` [compound 154] was 0.1 to 100 nM; that for `Cc1nn(CCO)c(C)c1-c1ncc(F)c(OC2CN(C(=O)N3N=CC[C@H]3c3cc(F)cc(F)c3)C2)n1` [compound 156, (S)-(5-(3,5-difluorophenyl)-4,5-dihydro-1H-pyrazol-1-yl)(3-((5-fluoro-2-(1-(2-hydroxyethyl)-3,5-dimethyl-1H-pyrazol-4-yl)pyrimidin-4-yl)oxy)azetidin-1-yl)methanone] was 0.1 to 100 nM.
As for `Cn1ncc(C(=O)N2CC(O)C2)c1-c1cc(OC2CN(C(=O)N3N=CC[C@H]3c3cc(F)cc(F)c3)C2)c(F)cn1` [compound 73, (S)-(5-(3,5-difluorophenyl)-4,5-dihydro-1H-pyrazol-1-yl)(3-((5-fluoro-2-(4-(3-hydroxyazetidine-1-carbonyl)-1-methyl-1H-pyrazol-5-yl)pyridin-4-yl)oxy)azetidin-1-yl)methanone], under setting [2], the EC50 lay within 100 to 1000 nM.
Turning to `Cc1c(C(N)=O)nn(C)c1-c1ccc(F)c(OC2CN(C(=O)N3N=CC[C@H]3c3cc(F)cc(F)c3)C2)n1` [compound 196, (S)-5-(6-((1-(5-(3,5-difluorophenyl)-4,5-dihydro-1H-pyrazole-1-carbonyl)azetidin-3-yl)oxy)-5-fluoropyridin-2-yl)-1,4-dimethyl-1H-pyrazole-3-carboxamide], the concentration for a half-maximal effect (EC50) under setting [1] fell in the range of 0.1 to 100 nM.
Still for that read-out and setting: the value for `Cc1c(N)nn(C)c1-c1ncc(F)c(OC2CN(C(=O)N3N=CC[C@H]3c3cc(F)cc(F)c3)C2)n1` [compound 207, (S)-(3-((2-(3-amino-1,4-dimethyl-1H-pyrazol-5-yl)-5-fluoropyrimidin-4-yl)oxy)azetidin-1-yl)(5-(3,5-difluorophenyl)-4,5-dihydro-1H-pyrazol-1-yl)methanone] was 0.1 to 100 nM.
In the case of `CC(=O)N(C(C)=O)c1cc(-c2cc(OC3CN(C(=O)N4N=CC[C@H]4c4cc(F)cc(F)c4)C3)c(F)cn2)n(C)n1` [compound 136, (S)—N-acetyl-N-(5-(4-((1-(5-(3,5-difluorophenyl)-4,5-dihydro-1H-pyrazole-1-carbonyl)azetidin-3-yl)oxy)-5-fluoropyridin-2-yl)-1-methyl-1H-pyrazol-3-yl)acetamide], under setting [1], the concentration giving a half-maximal response (EC50) is 0.1 to 100 nM.
As for `CCc1nn(-c2cc(OC3CN(C(=O)N4N=CC[C@H]4c4cc(F)cc(F)c4)C3)c(F)cn2)c(C)c1C(N)=O` [compound 281, (S)-1-(4-((1-(5-(3,5-difluorophenyl)-4,5-dihydro-1H-pyrazole-1-carbonyl)azetidin-3-yl)oxy)-5-fluoropyridin-2-yl)-3-ethyl-5-methyl-1H-pyrazole-4-carboxamide], the concentration giving a half-maximal response (EC50) under setting [1] lay in the range of 0.1 to 100 nM.
Turning to `Cc1ccc(C)n1-c1cc(OC2CN(C(=O)N3N=CC[C@H]3c3cc(F)cc(F)c3)C2)c(F)cn1` [compound 147, (S)-(5-(3,5-difluorophenyl)-4,5-dihydro-1H-pyrazol-1-yl)(3-((2-(2,5-dimethyl-1H-pyrrol-1-yl)-5-fluoropyridin-4-yl)oxy)azetidin-1-yl)methanone], under setting [1], the EC50 lay in the range of 0.1 to 100 nM.
With `Cc1cccn1-c1ncc(F)c(OC2CN(C(=O)N3N=CC[C@H]3c3cc(F)cc(F)c3)C2)n1` [compound 102, (S)-(5-(3,5-difluorophenyl)-4,5-dihydro-1H-pyrazol-1-yl)(3-((5-fluoro-2-(2-methyl-1H-pyrrol-1-yl)pyrimidin-4-yl)oxy)azetidin-1-yl)methanone], the EC50 under setting [2] was 0.1 to 100 nM.
Turning to `Cc1nn(-c2cc(OC3CN(C(=O)N4N=CC[C@H]4c4cc(F)cc(F)c4)C3)c(F)cn2)c(C)c1C(=O)N1CCCCC1` [compound 183, (S)-(5-(3,5-difluorophenyl)-4,5-dihydro-1H-pyrazol-1-yl)(3-((2-(3,5-dimethyl-4-(piperidine-1-carbonyl)-1H-pyrazol-1-yl)-5-fluoropyridin-4-yl)oxy)azetidin-1-yl)methanone], the EC50 under setting [1] lay in the range of 0.1 to 100 nM.
On the same count and under the same terms, the value for `Cn1nc(CF)nc1-c1cc(OC2CN(C(=O)N3N=CC[C@H]3c3cc(F)cc(F)c3)C2)c(F)cn1` [compound 201, (S)-(5-(3,5-difluorophenyl)-4,5-dihydro-1H-pyrazol-1-yl)(3-((5-fluoro-2-(3-(fluoromethyl)-1-methyl-1H-1,2,4-triazol-5-yl)pyridin-4-yl)oxy)azetidin-1-yl)methanone] was 0.1 to 100 nM.
Turning to `Cn1ncnc1-c1ccc(F)c(OC2CN(C(=O)N3N=CC[C@H]3c3cc(F)cc(F)c3)C2)n1` [compound 28, (S)-(5-(3,5-difluorophenyl)-4,5-dihydro-1H-pyrazol-1-yl)(3-((3-fluoro-6-(1-methyl-1H-1,2,4-triazol-5-yl)pyridin-2-yl)oxy)azetidin-1-yl)methanone], the EC50 under setting [2] lay in the range of 0.1 to 100 nM.
As to `Cc1nc(C#N)c(C)n1-c1cc(OC2CN(C(=O)N3N=CC[C@H]3c3cc(F)cc(F)c3)C2)c(F)cn1` [compound 199, (S)-1-(4-((1-(5-(3,5-difluorophenyl)-4,5-dihydro-1H-pyrazole-1-carbonyl)azetidin-3-yl)oxy)-5-fluoropyridin-2-yl)-2,5-dimethyl-1H-imidazole-4-carbonitrile], the EC50 under setting [1] was 0.1 to 100 nM.
For `Cc1nn(-c2cc(OC3CN(C(=O)N4N=CC[C@H]4c4cc(F)cc(F)c4)C3)c(F)cn2)c(C)c1C(N)=O` [compound 110, (S)-1-(4-((1-(5-(3,5-difluorophenyl)-4,5-dihydro-1H-pyrazole-1-carbonyl)azetidin-3-yl)oxy)-5-fluoropyridin-2-yl)-3,5-dimethyl-1H-pyrazole-4-carboxamide], the concentration giving a half-maximal response (EC50) under setting [2] lay within 0.1 to 100 nM.
For `CC(=O)Nc1cc(-c2cc(OC3CN(C(=O)N4N=CC[C@H]4c4cc(F)cc(F)c4)C3)c(F)cn2)n(C)n1` [compound 135], the concentration for a half-maximal effect (EC50) (HT-29, 20 h, read-out: Cell activity (EC50) of Compounds 117-281) is 0.1 to 100 nM.
For the molecule `Cn1ncnc1-c1cc(OC2CN(C(=O)N3N=CC[C@H]3c3cc(F)cc(F)c3)C2)c(F)cn1` [compound 29, (S)-(5-(3,5-difluorophenyl)-4,5-dihydro-1H-pyrazol-1-yl)(3-((5-fluoro-2-(1-methyl-1H-1,2,4-triazol-5-yl)pyridin-4-yl)oxy)azetidin-1-yl)methanone], the half-maximal effective concentration (EC50) under setting [2] fell in the range of 0.1 to 100 nM.
Consider `CCNC(=O)c1c(C)nn(-c2cc(OC3CN(C(=O)N4N=CC[C@H]4c4cc(F)cc(F)c4)C3)c(F)cn2)c1C` [compound 231, (S)-1-(4-((1-(5-(3,5-difluorophenyl)-4,5-dihydro-1H-pyrazole-1-carbonyl)azetidin-3-yl)oxy)-5-fluoropyridin-2-yl)-N-ethyl-3,5-dimethyl-1H-pyrazole-4-carboxamide], for which the EC50 under setting [1] fell in the range of 0.1 to 100 nM.
`Cc1cn(C)c(-c2cc(OC3CN(C(=O)N4N=CC[C@H]4c4cc(F)cc(F)c4)C3)c(F)cn2)n1` [compound 40, (S)-(5-(3,5-difluorophenyl)-4,5-dihydro-1H-pyrazol-1-yl)(3-((2-(1,4-dimethyl-1H-imidazol-2-yl)-5-fluoropyridin-4-yl)oxy)azetidin-1-yl)methanone]: under setting [2], the EC50 fell in the range of 0.1 to 100 nM.
The same measure, in the same setting: in the case of `Cc1csnc1-c1ccc(F)c(OC2CN(C(=O)N3N=CC[C@H]3c3cc(F)cc(F)c3)C2)n1` [compound 23, (S)-(5-(3,5-difluorophenyl)-4,5-dihydro-1H-pyrazol-1-yl)(3-((3-fluoro-6-(4-methylisothiazol-3-yl)pyridin-2-yl)oxy)azetidin-1-yl)methanone] it was 0.1 to 100 nM.
